The nature of this experiment: Tested for activity against 5-hydroxytryptamine 1A receptor from bovine hippocampus.
In general, Ki refers to the dissociation constant of the complex between target and ligand, obtained from inhibition or displacement. Lower therefore signals higher affinity. Consider `COc1cccc2c1C[C@H]1CCN(Cc3ccccc3)[C@@H]1C2`, for which the Ki stood at 127 nM.
Turning to `C=CCN1C[C@H]2c3c(cccc3OC)CC[C@H]21`, the Ki amounted to 5.9 nM.
Then `CCCN1CC[C@@H]2c3ccccc3CC[C@H]21`, with 44 nM.
Then `COc1cccc2c1CC[C@@H]1[C@@H]2CCN1CC1CC1`, with 66 nM; and `C=CCN1CC[C@H]2c3ccccc3CC[C@H]21`, with 31 nM; and `CCCN1CC[C@H]2c3ccccc3CC[C@H]21`, with 37 nM.
The result for `COc1cccc2c1C[C@H]1CCN(CC3CC3)[C@@H]1C2` reads 29 nM; that for `COc1cccc2c1C[C@H]1CCN(CC3CC3)[C@H]1C2`, 721 nM; that for `COc1cccc2c1C[C@H]1CCN[C@@H]1C2`, 29 nM.
Compound `CCCN1CC[C@H]2c3c(cccc3OC)CC[C@H]21` returned a Ki of 186 nM.
On to `C=CCN1C[C@H]2c3c(O)cccc3CC[C@H]21`, for which the Ki turned out to be 0.3 nM.
Then `C=CCN1CC[C@@H]2c3ccccc3CC[C@H]21`, with 11 nM.
